Data: patent publication US20260317319A1, “NOVEL ERGOLINES AND METHODS OF TREATING MOOD DISORDERS” (Gilgamesh Pharma Inc., priority 2023, published 2026)
Where two headings read alike, the source gives them in different places.

Tests used:
[1] = in vitro; assay type: in vitro ADME, rat; details: RLM (male Sprague-Dawley) 0.50 mg/mL, NADPH 1 mM, 1 μM compound, pH 7.4, 37° C., 60 min
Excerpt: RLM Stability Pooled RLM from male Sprague-Dawley rats (Xenotech R1000) were used.

[2] = molecular target: T1, 5-HT2A receptor (Homo sapiens, UniProt P28223); test: cell-based; assay type: cell-based; set-up: expressed in transfected cells; host or cells: HEK293, stably transfected; details: Ca2+ flux; for EC50: HEK293
T1 sequence (P28223 whole entry): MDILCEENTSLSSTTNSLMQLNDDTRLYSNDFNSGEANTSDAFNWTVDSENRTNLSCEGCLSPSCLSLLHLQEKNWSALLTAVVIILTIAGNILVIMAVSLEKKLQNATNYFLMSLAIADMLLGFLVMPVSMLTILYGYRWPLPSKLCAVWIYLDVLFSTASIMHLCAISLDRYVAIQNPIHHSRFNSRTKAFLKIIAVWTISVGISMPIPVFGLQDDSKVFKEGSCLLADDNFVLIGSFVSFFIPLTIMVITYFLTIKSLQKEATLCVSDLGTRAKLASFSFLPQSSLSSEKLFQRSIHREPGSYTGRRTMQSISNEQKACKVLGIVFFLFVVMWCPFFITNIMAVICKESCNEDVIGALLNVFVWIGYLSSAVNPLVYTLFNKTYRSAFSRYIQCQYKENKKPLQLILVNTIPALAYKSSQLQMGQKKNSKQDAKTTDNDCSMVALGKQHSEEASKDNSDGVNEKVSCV
In short: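 FLIPR Ca2+ flux agonist assay using stably transfected HEK293 (5-HT2A, 5-HT2B) or CHO cells co-expressing Gα15 (5-HT1A). Cells loaded with Fluo-4 Direct plus 2.5 mM probenecid (final) for 50 min at 37 °C, then compound added and fluorescence read.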

[3] = molecular target: T2, 5-HT1A receptor (Homo sapiens, UniProt P08908); test: cell-based; details: agonist, Ca2+ flux; for EC50: CHO cells with Gα15
T2 construct: expressed in transfected cells; host or cells: CHO cells, stably transfected
T2 sequence (P08908 1-422): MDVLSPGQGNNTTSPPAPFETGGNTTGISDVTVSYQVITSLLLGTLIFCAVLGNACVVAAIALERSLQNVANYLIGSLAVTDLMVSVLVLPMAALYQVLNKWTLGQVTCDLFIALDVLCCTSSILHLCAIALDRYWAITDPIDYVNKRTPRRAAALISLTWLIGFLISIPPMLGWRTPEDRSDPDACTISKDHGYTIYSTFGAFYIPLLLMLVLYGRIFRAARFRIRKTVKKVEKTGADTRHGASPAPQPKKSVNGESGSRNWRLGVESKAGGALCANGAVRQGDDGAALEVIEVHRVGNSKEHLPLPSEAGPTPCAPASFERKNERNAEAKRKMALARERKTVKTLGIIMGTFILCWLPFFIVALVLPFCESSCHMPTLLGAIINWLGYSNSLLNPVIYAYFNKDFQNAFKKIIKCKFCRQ
In short: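 Using HEK293 lines for the 5-HT2 subtypes and Gα15-coupled CHO cells for 5-HT1A, compounds were tested as agonists. Fluorescent Ca2+ signal followed dye loading (Fluo-4 Direct, 2.5 mM final probenecid, 50 min, 37 °C).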

[4] = in vitro; assay type: in vitro ADME, mouse; details: MLM (male CD-1) 0.50 mg/mL, NADPH 1 mM, 1 μM compound, pH 7.4, 37° C., 60 min
Excerpt: MLM Stability Pooled MLM from male CD-1 mice (BIOIVT M00501) were used.

[5] = in vitro; assay type: in vitro ADME, human; details: HLM 0.50 mg/mL, NADPH 1 mM, 1 μM compound, pH 7.4, 37° C., 60 min
[6] = molecular target: T1, 5-HT2A receptor; test: biochemical; assay type: binding; set-up: expressed in transfected cells; host or cells: HEK293, stably transfected; details: [3H]ketanserin 1 nM; HEK293 stable cell line; 1 h, 25 °C
In short: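 Affinity was measured in radioligand binding experiments using [^3H]ketanserin as the labelled ligand, following methods adapted from published procedures.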

[7] = molecular target: T3, 5-HT2B receptor (Homo sapiens, UniProt P41595); test: cell-based; assay type: cell-based; details: Ca2+ flux; for EC50: HEK293
T3 construct: expressed in transfected cells; host or cells: HEK293, stably transfected
T3 sequence (P41595 whole entry): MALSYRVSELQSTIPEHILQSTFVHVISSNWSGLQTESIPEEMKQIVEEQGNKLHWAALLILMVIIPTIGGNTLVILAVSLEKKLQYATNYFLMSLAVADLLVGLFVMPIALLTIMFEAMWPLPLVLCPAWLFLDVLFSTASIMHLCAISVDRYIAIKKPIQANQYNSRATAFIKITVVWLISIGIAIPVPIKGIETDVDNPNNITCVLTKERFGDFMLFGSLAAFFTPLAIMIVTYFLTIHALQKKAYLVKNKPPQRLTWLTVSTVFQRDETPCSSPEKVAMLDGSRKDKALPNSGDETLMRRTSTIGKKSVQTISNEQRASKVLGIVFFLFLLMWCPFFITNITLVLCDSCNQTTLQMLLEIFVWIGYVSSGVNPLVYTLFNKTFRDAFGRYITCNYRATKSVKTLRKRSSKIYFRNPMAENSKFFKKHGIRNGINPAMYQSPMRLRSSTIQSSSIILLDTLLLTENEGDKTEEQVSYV
In short: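 FLIPR Tetra fluorescence read-out of calcium flux after compound addition. Receptor-expressing stable lines were used (HEK293 for 2A/2B; CHO with Gα15 for 1A), dye-loaded with Fluo-4 Direct and 2.5 mM final probenecid, 50 min at 37 °C.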

[8] = molecular target: T4, 5-HT1B receptor (Homo sapiens, UniProt P28222); test: cAMP accumulation functional assay at 5-HT1B; assay type: cell-based; details: agonist, cAMP accumulation
T4 construct: expressed in transfected cells
T4 sequence (P28222 whole entry): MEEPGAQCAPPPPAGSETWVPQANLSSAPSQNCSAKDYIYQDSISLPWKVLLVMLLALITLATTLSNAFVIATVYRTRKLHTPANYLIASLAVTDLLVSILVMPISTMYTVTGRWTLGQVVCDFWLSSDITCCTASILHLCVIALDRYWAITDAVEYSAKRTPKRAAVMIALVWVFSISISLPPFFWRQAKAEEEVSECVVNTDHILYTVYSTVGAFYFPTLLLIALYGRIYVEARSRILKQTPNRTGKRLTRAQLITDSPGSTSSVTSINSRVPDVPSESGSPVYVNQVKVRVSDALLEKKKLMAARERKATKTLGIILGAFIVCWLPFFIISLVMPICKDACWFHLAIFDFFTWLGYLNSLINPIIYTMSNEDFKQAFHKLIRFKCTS
In short: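 Agonist activity measured as cAMP accumulation in cells stably transfected with human 5-HT1B. Cells incubated 60 min at RT, then detection reagent added for a further 60 min at RT before plate reading.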

[9] = molecular target: T5, 5-HT2C receptor (Homo sapiens, UniProt P28335); test: Ca2+ flux functional assay at 5-HT2C (WuXi 5-HT2C protocol); assay type: cell-based; set-up: expressed in transfected cells
T5 sequence (P28335 33-458): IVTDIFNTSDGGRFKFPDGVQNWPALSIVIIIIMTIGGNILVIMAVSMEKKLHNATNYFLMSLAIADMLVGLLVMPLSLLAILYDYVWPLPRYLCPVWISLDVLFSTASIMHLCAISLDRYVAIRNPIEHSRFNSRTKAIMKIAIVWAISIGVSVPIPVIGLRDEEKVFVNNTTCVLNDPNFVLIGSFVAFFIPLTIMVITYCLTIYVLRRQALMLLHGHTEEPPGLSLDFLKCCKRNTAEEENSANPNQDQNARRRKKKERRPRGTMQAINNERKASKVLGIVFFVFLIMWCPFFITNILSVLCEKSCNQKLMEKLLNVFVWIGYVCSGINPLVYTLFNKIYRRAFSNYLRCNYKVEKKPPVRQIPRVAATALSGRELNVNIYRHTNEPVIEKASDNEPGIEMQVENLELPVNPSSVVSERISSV
Description: Disclosed compounds were tested for agonist activity at several serotonin receptor subtypes (5-HT2A, […], 5-HT2C, and 5-HT1A) using Ca^2+ flux functional assays and the 5-HT1B receptor using a cAMP accumulation assay, with the results summarized in Table 4. […] Potent agonist activity was also observed at the other serotonin receptors tested, although the selectivity profile among the receptors varied across compounds. […] However, at the same time, the N-propyl compounds were more efficacious agonists at 5-HT2B than the corresponding N-methyl compounds. The selectivity of disclosed compounds for 5-HT2A over 5-HT2C and 5-HT1A was less predictable and varied widely across compounds. […] An azetidinyl amide substituent tended to increase potency at 5-HT1A relative to 5-HT2A.
Functional Assays at 5-HT2A, 5-HT2B, and 5-HT1A. Agonist activity at 5-HT2A, 5-HT2B, 5HT2C and 5-HT1A receptors was determined using a FLIPR Ca^2+ flux assay at WuXi AppTec (Hong Kong) Limited according to their standard protocols. Briefly, stably transfected cells expressing the receptor of interest and Gα15 in the case of 5-HT1A (HEK293 for 5-HT2A and 5-HT2B; CHO cells for 5-HT1A) were grown and plated in a 384 well plate and incubated at 37° C. and 5% CO2 overnight. A solution of 250 mM probenecid in 1 mL FLIPR assay buffer was prepared fresh. This was combined with a fluorescent dye (Fluo-4 Direct™) to make a final assay concentration of 2.5 mM. Compounds were diluted 1:3.16 for 10 points and 750 nL was added to a 384 well compound plate using ECHO along with 30 μL assay buffer. The fluorescent dye was then added to the assay plate along with assay buffer to a final volume of 40 μL. The cell plate was incubated for 50 min at 37° C. and 5% CO2 and placed into the FLIPR Tetra along with the compound plate. 10 μL of references and compounds were then transferred from the compound plate into the cell plate and the fluorescent signal was read.

[10] = molecular target: T1, 5-HT2A receptor; test: cell-based; assay type: cell-based; details: beta-arrestin recruitment
In short: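 PathHunter β-arrestin recruitment (enzyme fragment complementation): 5-HT2A fused to ProLink donor in cells co-expressing β-arrestin–β-galactosidase acceptor, seeded and held at 37° C before testing. Chemiluminescent read-out; agonist % activity = (sample RLU − vehicle)/(max control ligand − vehicle) × 100.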

[11] = test system: C57BL/6 mice; test: Mouse head twitch response (HTR) assay (observer-counted); assay type: in vivo; details: SC
Description: Agonists of the 5-HT2A receptor are well known to induce this effect in rodents and the potency of this HTR is correlated with hallucinogenic potency in humans.
Animals. Adult male C57BL/6 mice, aged 6-8 weeks (body weight 20-25 g) were used in this experiment. Animals were housed under controlled temperatures and 12-hour light/dark cycles (lights on between 07:00-19:00 h), with ad libitum food and water. This study was carried out in strict accordance with the requirements of the Committee for the Purpose of Control and Supervision of Experiments on Animals (CPCSEA), India. All efforts were made to minimize suffering.
Procedure. Mice were administered one dose of the drug and immediately placed into a small open field for behavioral observation. Animals were observed continuously for 20 mins and the number of head twitches (HTs) were counted by an observer blind to the treatment condition.
Statistical Analysis. The data points shown are the mean±standard error of the mean (SEM). Analysis was performed using GraphPad Prism 6. Curves were fit using a non-linear gaussian distribution to calculate ED50 and Emax values.
Additional disclosed compounds were tested in the mouse head twitch response (HTR) assay according to the procedure described in Example 57 (administered SC). […] Lastly, compounds with much larger benzyl and phenethyl substituents on the amine nitrogen (e.g., 10 and 11) were low efficacy in this assay, consistent with their bias toward arrestin signaling (see Example 55).

Question: Which “Intrinsic clearance (Clint)” value [1] does the source give for `CCN(CC)C(=O)[C@@H]1C=C2c3cccc4[nH]cc(c34)C[C@H]2N(Cc2ccnc(OC)c2)C1` [Compound 79] here?
Answer: 80.5 µL/min/mg

Question: And the “half-life (t1/2)” value [1]?
Answer: 17.2 min

Question: What about the EC50 ([2]; agonist) of the same molecule?
Answer: 2.5 µM

Question: And the “5-HT2A % Act @ Max Dose” value ([2]; agonist, HEK293, max dose)?
Answer: 68.17%

Question: And the EC50 [3]?
Answer: 8.05 µM

Question: What about the “5-HT1A % Act @ Max Dose” value ([3]; CHO cells with Gα15, max dose) of the same molecule?
Answer: 77.71%

Question: And the “Intrinsic clearance (Clint)” value [4]?
Answer: 298.4 µL/min/mg

Question: And the “half-life (t1/2)” value [4]?
Answer: 4.6 min

Question: And the “Intrinsic clearance (Clint)” value [5]?
Answer: 61.2 µL/min/mg

Question: What about the “half-life (t1/2)” value [5] of the same molecule?
Answer: 22.7 min

Question: And the Ki [6]?
Answer: 0.182 µM

Question: What about the EC50 ([7]; agonist) of the same molecule?
Answer: > 10 µM

Question: What about the “5-HT2B % Act @ Max Dose” value ([7]; agonist, HEK293, max dose) of the same molecule?
Answer: 1.38%

Question: And the EC50 [8]?
Answer: > 10 µM

Question: And the “5-HT1B % Act @ Max Dose” value ([8]; max dose)?
Answer: 42.45%

Question: What about the EC50 ([9]; agonist, Ca2+ flux, tested using WuXi 5-HT2C protocol, read-out: 5-HT2C EC50 (* WuXi protocol)) of the same molecule?
Answer: > 10 µM

Question: What about the “5-HT2C % Act @ Max Dose (* WuXi protocol)” value ([9]; agonist, tested using WuXi 5-HT2C protocol, max dose) of the same molecule?
Answer: 0.60* %

Question: Which microsomal CLint ([1]; rat, microsomes, read-out: Intrinsic clearance (Clint)) does the source give for `CCN(CC)C(=O)[C@@H]1C=C2c3cccc4[nH]cc(c34)C[C@H]2N(Cc2ccccc2C)C1` [Compound 99, (6aR,9R)—N,N-diethyl-7-(2-methylbenzyl)-4,6,6a,7,8,9-hexahydroindolo[4,3-fg]quinoline-9-carboxamide] here?
Answer: 174 µL/min/mg

Question: And the half-life ([1]; rat, microsomes, read-out: half-life (t1/2))?
Answer: 8 min

Question: And the Emax ([2]; HEK293, agonist, HEK293, max dose, read-out: 5-HT2A % Act @ Max Dose)?
Answer: 73.6%

Question: And the EC50 ([2]; agonist)?
Answer: 1.21 µM

Question: What about the Emax ([3]; CHO, CHO cells with Gα15, max dose, read-out: 5-HT1A % Act @ Max Dose) of the same molecule?
Answer: 69.9%

Question: What about the EC50 [3] of the same molecule?
Answer: 19.6 µM

Question: And the microsomal CLint ([4]; mouse, microsomes, read-out: Intrinsic clearance (Clint))?
Answer: 426 µL/min/mg

Question: What about the half-life ([4]; mouse, microsomes, read-out: half-life (t1/2)) of the same molecule?
Answer: 3.3 min

Question: What about the microsomal CLint ([5]; human, microsomes, read-out: Intrinsic clearance (Clint)) of the same molecule?
Answer: 86.4 µL/min/mg

Question: And the half-life ([5]; human, microsomes, read-out: half-life (t1/2))?
Answer: 16 min

Question: What about the Ki [6] of the same molecule?
Answer: 0.00922 µM

Question: What about the Emax ([7]; HEK293, agonist, HEK293, max dose, read-out: 5-HT2B % Act @ Max Dose) of the same molecule?
Answer: 1.41%

Question: What about the EC50 ([7]; agonist) of the same molecule?
Answer: > 10 µM

Question: What about the EC50 [9] of the same molecule?
Answer: > 10 µM

Question: What about the Emax ([9]; agonist, tested using WuXi 5-HT2C protocol, max dose, read-out: 5-HT2C % Act @ Max Dose (* WuXi protocol)) of the same molecule?
Answer: 0.56%

Question: Which “5-HT2A Arrestin % Act @ Max Dose” value ([10]; agonist, max dose) does the source give for `C[C@H]1C[C@H](C)N1C(=O)[C@@H]1C=C2c3cccc4[nH]cc(c34)C[C@H]2N(C)C1` [Int11] here?
Answer: 49.27%

Question: What about the “5-HT2A arrestin agonist class” value [10] of the same molecule?
Answer: partial agonists

Question: And the “5-HT2A arrestin Emax (bound)” value ([10]; partial agonists)?
Answer: < 60%

Question: And the “Intrinsic clearance (Clint)” value [1]?
Answer: 25.3 µL/min/mg

Question: What about the “half-life (t1/2)” value [1] of the same molecule?
Answer: 54.9 min

Question: What about the “Intrinsic clearance (Clint)” value [4] of the same molecule?
Answer: 100 µL/min/mg

Question: And the “half-life (t1/2)” value [4]?
Answer: 13.9 min

Question: What about the “Intrinsic clearance (Clint)” value [5] of the same molecule?
Answer: 53.9 µL/min/mg

Question: And the “half-life (t1/2)” value [5]?
Answer: 25.7 min

Question: And the “ED50 (HTR)” value ([11]; 20 min, curve fit poor in some cases)?
Answer: 0.0154 mg/kg

Question: What about the “Emax, HTR/20 min” value ([11]; curve fit poor in some cases) of the same molecule?
Answer: 10.93 HTR/20 min

Question: What about the “efficacy in HTR assay” value ([11]; maximal effect) of the same molecule?
Answer: lower efficacy than analogous compounds bearing other amide substituents

Question: What about the “# HTR/20 min at Most Efficacious Dose” value ([11]; most efficacious dose 0.1 mg/kg) of the same molecule?
Answer: 10.667 HTR/20 min
